In ChEMBL document CHEMBL1782045, “Discovery, synthesis, and investigation of the antitumor activity of novel piperazinylpyrimidine derivatives” (Eur J Med Chem, 2011):

Tests used:
M14 = assay: Growth inhibition of human M14 cells after 48 hrs by sulforhodamine B assay; type: functional; conditions: M14, 48 h
[1] = target: Mast/stem cell growth factor receptor Kit (Homo sapiens) (UniProt P10721); assay: Binding affinity to human KIT at 10 uM incubated for 1 hr by kinase binding assay relative to untreated control
Mast/stem cell growth factor receptor Kit (Homo sapiens), sequence (P10721 whole entry): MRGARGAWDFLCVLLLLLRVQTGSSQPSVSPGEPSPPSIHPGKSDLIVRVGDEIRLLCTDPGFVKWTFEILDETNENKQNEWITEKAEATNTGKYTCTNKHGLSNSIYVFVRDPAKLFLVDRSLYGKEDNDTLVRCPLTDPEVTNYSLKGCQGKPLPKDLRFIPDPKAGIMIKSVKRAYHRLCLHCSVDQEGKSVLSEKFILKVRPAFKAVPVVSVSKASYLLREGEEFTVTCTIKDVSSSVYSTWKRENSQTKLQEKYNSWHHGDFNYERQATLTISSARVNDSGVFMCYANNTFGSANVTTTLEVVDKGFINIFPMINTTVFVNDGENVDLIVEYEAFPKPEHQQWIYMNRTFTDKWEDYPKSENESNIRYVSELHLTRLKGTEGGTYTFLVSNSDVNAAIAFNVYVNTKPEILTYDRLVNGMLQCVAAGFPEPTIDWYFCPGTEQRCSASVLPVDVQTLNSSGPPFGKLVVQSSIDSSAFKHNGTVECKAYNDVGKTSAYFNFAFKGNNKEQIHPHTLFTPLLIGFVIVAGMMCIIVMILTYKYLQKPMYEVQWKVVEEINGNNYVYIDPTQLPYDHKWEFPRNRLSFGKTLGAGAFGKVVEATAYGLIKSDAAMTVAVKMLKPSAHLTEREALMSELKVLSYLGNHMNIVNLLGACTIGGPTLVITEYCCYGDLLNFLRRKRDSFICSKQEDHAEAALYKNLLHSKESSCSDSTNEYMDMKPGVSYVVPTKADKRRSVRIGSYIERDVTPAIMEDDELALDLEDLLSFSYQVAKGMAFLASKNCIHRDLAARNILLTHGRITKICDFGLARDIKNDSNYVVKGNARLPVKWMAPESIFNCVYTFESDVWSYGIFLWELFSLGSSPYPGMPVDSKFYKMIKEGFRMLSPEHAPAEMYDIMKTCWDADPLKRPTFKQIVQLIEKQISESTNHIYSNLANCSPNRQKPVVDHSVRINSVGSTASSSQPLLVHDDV

SF-295 [2] = assay: Cytotoxicity against human SF295 cells after 48 hrs by sulforhodamine B assay; type: cell-based; conditions: sf-295, 48 h
[3] = target: Platelet-derived growth factor receptor alpha (Homo sapiens) (UniProt P16234); assay: Binding affinity to human PDGFRA at 10 uM incubated for 1 hr by kinase binding assay relative to untreated control
Platelet-derived growth factor receptor alpha (Homo sapiens), sequence (P16234 whole entry): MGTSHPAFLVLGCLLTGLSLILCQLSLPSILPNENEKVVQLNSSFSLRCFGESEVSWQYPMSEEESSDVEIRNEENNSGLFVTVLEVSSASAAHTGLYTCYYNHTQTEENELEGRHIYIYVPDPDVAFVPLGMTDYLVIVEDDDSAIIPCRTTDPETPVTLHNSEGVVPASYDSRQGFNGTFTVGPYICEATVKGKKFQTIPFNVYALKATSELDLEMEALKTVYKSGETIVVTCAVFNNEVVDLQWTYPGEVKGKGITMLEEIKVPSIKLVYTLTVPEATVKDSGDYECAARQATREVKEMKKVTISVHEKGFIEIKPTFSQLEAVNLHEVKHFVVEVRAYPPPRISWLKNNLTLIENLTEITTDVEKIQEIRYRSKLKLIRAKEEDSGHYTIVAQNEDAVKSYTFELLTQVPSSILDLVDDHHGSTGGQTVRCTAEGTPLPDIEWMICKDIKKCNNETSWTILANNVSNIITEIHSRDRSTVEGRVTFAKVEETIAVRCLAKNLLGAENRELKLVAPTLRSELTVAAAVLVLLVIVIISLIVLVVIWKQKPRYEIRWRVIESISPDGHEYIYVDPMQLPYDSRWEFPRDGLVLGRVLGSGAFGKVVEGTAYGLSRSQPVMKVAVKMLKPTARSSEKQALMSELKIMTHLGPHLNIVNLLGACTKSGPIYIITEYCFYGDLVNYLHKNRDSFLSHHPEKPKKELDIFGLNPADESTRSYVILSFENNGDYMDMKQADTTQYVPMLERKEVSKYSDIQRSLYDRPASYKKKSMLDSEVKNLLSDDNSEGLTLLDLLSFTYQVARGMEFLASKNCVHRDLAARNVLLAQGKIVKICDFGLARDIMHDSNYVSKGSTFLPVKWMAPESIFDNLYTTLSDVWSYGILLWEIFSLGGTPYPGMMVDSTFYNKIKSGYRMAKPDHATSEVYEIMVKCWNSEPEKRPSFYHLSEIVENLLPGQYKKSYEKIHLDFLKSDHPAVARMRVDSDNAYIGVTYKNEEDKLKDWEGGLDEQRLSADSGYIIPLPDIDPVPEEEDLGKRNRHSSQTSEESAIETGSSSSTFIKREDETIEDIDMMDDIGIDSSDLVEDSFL

OVCAR-4 = assay: Growth inhibition of human OVCAR4 cells after 48 hrs by sulforhodamine B assay; type: functional; conditions: OVCAR-4, 48 h
CCRF-CEM [4] = assay: Growth inhibition of human CCRF-CEM cells after 48 hrs by sulforhodamine B assay; type: functional
CAKI-1 = assay: Growth inhibition of human Caki1 cells after 48 hrs by sulforhodamine B assay; type: functional; conditions: CAKI-1, 48 h
IGROV-1 = assay: Growth inhibition of human IGROV1 cells after 48 hrs by sulforhodamine B assay; type: functional; conditions: IGROV-1, 48 h
[5] = tested on: Mast/stem cell growth factor receptor Kit (Homo sapiens), P10721 [L576P]; assay: Binding affinity to human KIT L576P mutant at 10 uM incubated for 1 hr by kinase binding assay relative to untreated control
Mast/stem cell growth factor receptor Kit (Homo sapiens), P10721 [L576P], sequence (P10721 whole entry L576P): as the sequence (P10721 whole entry) above, with L576P counted along it

MCF7 = assay: Growth inhibition of human MCF7 cells after 48 hrs by sulforhodamine B assay; type: functional; conditions: MCF7, 48 h
[6] = target: Mast/stem cell growth factor receptor Kit (Homo sapiens) (UniProt P10721); assay: Inhibition of human KIT using gamma-33P-ATP as substrate assessed as enzyme functional activity at 1 uM by scintillation counting relative to untreated control; parameters: scale not given: the % may be the effect or the level left
HOP-92 = assay: Growth inhibition of human HOP92 cells after 48 hrs by sulforhodamine B assay; type: functional; conditions: HOP-92, 48 h
[7] = tested on: Mast/stem cell growth factor receptor Kit (Homo sapiens), P10721 [V559D]; assay: Binding affinity to human KIT V559D mutant at 10 uM incubated for 1 hr by kinase binding assay relative to untreated control
Mast/stem cell growth factor receptor Kit (Homo sapiens), P10721 [V559D], sequence (P10721 whole entry V559D): as the sequence (P10721 whole entry) above, with V559D counted along it

SF-295 [8] = assay: Growth inhibition of human SF295 cells after 48 hrs by sulforhodamine B assay; type: functional; conditions: SF-295, 48 h
CCRF-CEM [9] = assay: Cytotoxicity against human CCRF-CEM cells after 48 hrs by sulforhodamine B assay; type: cell-based
UACC-257 = assay: Growth inhibition of human UACC257 cells after 48 hrs by sulforhodamine B assay; type: functional; conditions: UACC-257, 48 h
PC-3 = assay: Growth inhibition of human PC3 cells after 48 hrs by sulforhodamine B assay; type: functional; conditions: PC-3, 48 h
[10] = tested on: Platelet-derived growth factor receptor alpha (Homo sapiens), P16234 [D842V]; assay: Inhibition of human PDGFRA D842V using gamma-33P-ATP as substrate assessed as enzyme functional activity at 1 uM by scintillation counting relative to untreated control; parameters: scale not given: the % may be the effect or the level left
Platelet-derived growth factor receptor alpha (Homo sapiens), P16234 [D842V], sequence (P16234 whole entry D842V): as the sequence (P16234 whole entry) above, with D842V counted along it

[11] = tested on: Mast/stem cell growth factor receptor Kit (Homo sapiens), P10721 [V560G]; assay: Inhibition of human KIT V560G using gamma-33P-ATP as substrate assessed as enzyme functional activity at 1 uM by scintillation counting relative to untreated control; parameters: scale not given: the % may be the effect or the level left
Mast/stem cell growth factor receptor Kit (Homo sapiens), P10721 [V560G], sequence (P10721 whole entry V560G): as the sequence (P10721 whole entry) above, with V560G counted along it

Malme-3M = assay: Growth inhibition of human MALME-3M cells after 48 hrs by sulforhodamine B assay; type: functional
RPMI-8226 = assay: Growth inhibition of human RPMI8226 cells after 48 hrs by sulforhodamine B assay; type: functional; conditions: RPMI-8226, 48 h
MOLT-4 = assay: Growth inhibition of human MOLT4 cells after 48 hrs by sulforhodamine B assay; type: functional; conditions: MOLT-4, 48 h
EKVX = assay: Growth inhibition of human EKVX cells after 48 hrs by sulforhodamine B assay; type: functional
[12] = target: T1, Receptor-type tyrosine-protein kinase FLT3 (Homo sapiens, UniProt P36888); assay: Binding affinity to human FLT3 incubated for 1 hr by kinase binding assay
T1 sequence (P36888 whole entry): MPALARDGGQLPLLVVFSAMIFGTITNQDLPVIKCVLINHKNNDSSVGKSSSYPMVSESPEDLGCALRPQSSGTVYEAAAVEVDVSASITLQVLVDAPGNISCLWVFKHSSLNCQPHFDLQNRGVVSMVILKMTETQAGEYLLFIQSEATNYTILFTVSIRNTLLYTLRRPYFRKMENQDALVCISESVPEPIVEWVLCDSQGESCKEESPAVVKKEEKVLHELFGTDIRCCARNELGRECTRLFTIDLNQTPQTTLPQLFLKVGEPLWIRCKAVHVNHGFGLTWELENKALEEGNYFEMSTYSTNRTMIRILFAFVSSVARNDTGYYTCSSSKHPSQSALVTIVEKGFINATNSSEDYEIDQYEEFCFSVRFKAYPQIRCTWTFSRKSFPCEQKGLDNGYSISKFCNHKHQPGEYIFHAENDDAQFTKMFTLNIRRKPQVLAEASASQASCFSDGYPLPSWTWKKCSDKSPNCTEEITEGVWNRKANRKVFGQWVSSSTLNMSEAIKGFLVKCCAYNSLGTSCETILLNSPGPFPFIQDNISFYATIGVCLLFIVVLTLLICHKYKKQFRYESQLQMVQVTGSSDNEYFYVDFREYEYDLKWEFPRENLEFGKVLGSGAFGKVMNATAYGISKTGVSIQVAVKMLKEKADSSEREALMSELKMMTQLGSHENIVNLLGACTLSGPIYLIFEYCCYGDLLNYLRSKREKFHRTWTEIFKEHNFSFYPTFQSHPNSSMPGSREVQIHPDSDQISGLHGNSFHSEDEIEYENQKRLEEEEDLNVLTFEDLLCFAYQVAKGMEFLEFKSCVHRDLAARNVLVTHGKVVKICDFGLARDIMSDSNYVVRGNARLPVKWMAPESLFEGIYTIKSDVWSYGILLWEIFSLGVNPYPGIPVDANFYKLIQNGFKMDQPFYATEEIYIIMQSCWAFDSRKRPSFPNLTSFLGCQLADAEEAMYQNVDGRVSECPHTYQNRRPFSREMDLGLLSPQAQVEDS

[13] = target: T1, Receptor-type tyrosine-protein kinase FLT3; assay: Inhibition of human FLT3 using gamma-33P-ATP as substrate by scintillation counting
MDA-MB-468 = assay: Growth inhibition of human MDA-MB-468 cells after 48 hrs by sulforhodamine B assay; type: functional; conditions: MDA-MB-468, 48 h

| SMILES | TGI (M14) | Activity [1] | LC50 (SF-295 [2]) | Activity [3] | TGI (CCRF-CEM [4]) | TGI (CAKI-1) | TGI (IGROV-1) | Activity [5] | TGI (MCF7) | Activity [6] | TGI (HOP-92) | Activity [7] | LC50 (CCRF-CEM [9]) | TGI (UACC-257) | TGI (PC-3) | Activity [10] | Activity [11] | TGI (Malme-3M) | TGI (RPMI-8226) | TGI (EKVX) | also measured |
| --- | --- | --- | --- | --- | --- | --- | --- | --- | --- | --- | --- | --- | --- | --- | --- | --- | --- | --- | --- | --- | --- |
| CCc1cnc(N2CCN(C(=O)c3ccc(CNc4ncnc5ccccc45)cc3)CC2)nc1 | 32.7 µM | > 50% | > 100 µM | > 50% | 60.9 µM | 94.8 µM | 49.8 µM | > 50% | 72.8 µM | 100% | 80.1 µM | > 50% | > 100 µM | 26.8 µM | > 100 µM | 100% | 99% | 42.2 µM |  |  | TGI (OVCAR-4): 58.8 µM; GI50 (CCRF-CEM [4]): 10 µM; TGI (SF-295 [8]): 23.1 µM |
| c1ccc(Cc2cnc(N3CCN(c4ncnc5ccccc45)CC3)nc2)cc1 | 26.3 µM |  |  |  | 64.4 µM | 39.3 µM | 63.3 µM |  | 58.2 µM |  | 24.2 µM |  | > 100 µM |  | > 100 µM |  |  | 33.6 µM | 21.8 µM | 33.1 µM | TGI (MOLT-4): 40.6 µM; Kd [12]: 0.46 µM; IC50 [13]: 6.69 µM |
| O=C(c1cccc(Nc2ncnc3ccccc23)c1)N1CCN(c2ncc(Cc3ccccc3)cn2)CC1 |  | > 50% | > 100 µM | > 50% |  |  |  | > 50% |  | 100% |  | > 50% |  | 2.63 µM |  | 96% | 86% |  | 0.6 µM | 4.9 µM | TGI (MDA-MB-468): 3.47 µM |
